US7790668B2, “2-methoxy-2,6-dimethyloctanal and its use as a fragrance ingredient” (Givaudan SA, priority 2005, dated 2010)

Assay: Odour threshold concentration by using an olfactometer
Settings: for Odour threshold concentration, geometric mean: olfactometer, forced-choice triangle presentation, group of 12 panelists, both compounds measured on the same day under identical conditions; for odour threshold concentration, times lower compared to 6-methoxy-2,6-dimethylheptanal (Methoxymelonal): ratio of the geometric mean thresholds vs the prior-art compound
Source text: The odour threshold concentration is defined as the lowest concentration of the vapour of an odorous material in the air which can be detected by smell. The concentration can be measured by standard methods known in the art by using either olfactometry means or sniff-bottles allowing panelists to smell the presented headspace.
The olfactometer functions on the principle of a linear dilution of an odorant in a carrier gas. The quantity of odorant displaced depends on its vapour pressure and the carrier gas flow. A constant flow of nitrogen, regulated by a flow regulator, carries the odorant from a sample container to a mixing chamber. There, the carrier gas-odour mixture is diluted with odourless air. From the mixing chamber one part of the diluted odorous air is allowed to flow via a fused silica capillary to the sniffing funnel. The flow rate through the capillary, which determines the dosage of odorous air from the mixing chamber into the sniffing funnel, depends on the opening of the valve which can be regulated via PC from 1 to 256 ml in binary steps. The final dilution of the odorous air sample occurs in the glass funnel by flushing them permanently with odourless air at a flow rate of 8 L/min. Forced-choice triangle presentation is achieved by a special automated channel setting device where only in one position of a switch the odorant delivering capillary enters in the sniffing funnel, whereas in the two other positions the capillary is positioned outside the funnel and where the effluent is sucked away. After each trial the channel setting is changed automatically and in a random order. The concentration is calculated from the odorants vapour pressure and from the dilution ratios that were applied in the olfactometer, assuming that vapour saturation is achieved in the sample generator. As a control the concentration was by sampling a known volume from the capillary effluent into a headspace filter and then determined. The panelist starts sniffing at the olfactometer at a concentration level at which he perceives the odorant at medium intensity. After three correct answers in three consecutive trials (or four correct ones of five trials) at the same level, stimulus concentration is decreased by a factor of two to the next lower level, and so on, until the panelist has reached his threshold level.
Under identical conditions the odour threshold concentration for 6-methoxy-2,6-dimethyloctanal and 6-methoxy-2,6-dimethylheptanal was measured and compared by a group of 12 panelists. The sequence with which of the two compounds the panelist started smelling was alternated. Both compounds were measured on the same day and the following data were obtained: […]

Row | Structure (SMILES) | Odour threshold concentration, geometric mean [ng/L] | odour threshold concentration, times lower compared to 6-methoxy-2,6-dimethylheptanal (Methoxymelonal) | odour threshold concentration, times lower compared to 6-methoxy-2,6-dimethylheptanal (Methoxymelonal) (listed as compound of the present invention) [times]
1 | CCC(C)(CCCC(C)C=O)OC (stereo not shown) [6-methoxy-2,6-dimethyloctanal] | 0.78 | about 2.5 times | 2.46
2 | COC(C)(C)CCCC(C)C=O (stereo not shown) [6-methoxy-2,6-dimethylheptanal, reference compound] | 1.92 |  | 
